# Molecular target: T1, HLE (Homo sapiens, UniProt P08246)
# T1 construct: Purified elastase from human white blood cells; from tissue; host or cells: human white blood cells (purified enzyme)
# T1 sequence (P08246 30-247 limits assumed): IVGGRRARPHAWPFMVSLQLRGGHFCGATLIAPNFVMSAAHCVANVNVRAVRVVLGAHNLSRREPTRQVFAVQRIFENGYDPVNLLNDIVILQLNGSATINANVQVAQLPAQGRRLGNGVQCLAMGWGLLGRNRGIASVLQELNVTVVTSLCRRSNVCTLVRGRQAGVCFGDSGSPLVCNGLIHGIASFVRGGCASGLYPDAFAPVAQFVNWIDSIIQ
# Assay: Enzyme assay for inhibition of HLE (human leukocyte elastase)
# Assay type: biochemical
# Conditions: purified elastase from human white blood cells, 10 nM; 10 minute preincubation; 0.35 mM MeO-succinyl-L-alanyl-L-alanyl-L-prolyl-L-valine-p-nitroanilide; pH 7.6; 10% dimethylsulfoxide; 410 nm; read-out: IC50 values against HLE
# Description: ENZYME ASSAY FOR INHIBITION OF HLE
# ENZYME: Purified elastase from human white blood cells.
# MeO-succinyl-L-alanyl-L-alanyl-L-prolyl-L-valine-
# 10 mM phosphate buffer (pH 7.6)
# The enzyme activity was determined by monitoring the increase in absorbance at 410 nm caused by the hydrolysis of chromogenic substrates. Inhibition of enzyme by the compounds described were determined after a 10 minute preincubation with the enzyme in the reaction mixture minus substrate. Reaction was initiated by the addition of substrate. The concentration of human leukocyte elastase used for assay was at 10 nM.
row,SMILES,IC50 [nM]
1,CO[C@H]1C(=O)N2C(C(=O)OC(C)(C)C)=C(CSc3nc(=O)c(O)nn3C)C3(CC34CCCC4)S(=O)(=O)C12 (stereo partly shown) [Compound 12],15
2,CO[C@H]1C(=O)N2C(C(=O)N3CCC(C(=O)O)CC3)=C(C)C3(CC34CCCC4)S(=O)(=O)C12 (stereo partly shown) [Compound 5],58.1
3,CO[C@H]1C(=O)N2C(C(=O)N3CCN(C)CC3)=C(C)C3(CC34CCCC4)S(=O)(=O)C12 (stereo partly shown) [drawing 6],27.3
4,CO[C@H]1C(=O)N2C(C(=O)N3CCN(C)CC3)=C(C)C3(CC34CCCC4)S(=O)(=O)C12 (stereo partly shown) [Compound 3],24.4
5,CO[C@H]1C(=O)N2C(C(=O)N3CCN(CC(=O)O)CC3)=C(C)C3(CC34CCCCC4)S(=O)(=O)C12 (stereo partly shown) [Compound 9],27
6,"CO[C@H]1C(=O)N2C(C(=O)OC(C)(C)C)=C(COC(C)=O)C3(CC34CCCC4)S(=O)(=O)C12 (stereo partly drawn) [Compound 11, t-Butyl-7α-methoxy-2-spiro(2'-spirocyclopentyl)cyclopropyl-3-acetoxymethyl-3-cephem-4-carboxylate-1,1-dioxide]",9.1
7,CON=C(C)C1=C(C)C2(CC23CCCC3)S(=O)(=O)C2[C@@H](OC)C(=O)N12 (stereo partly shown) [Compound 19],80.7
8,CO[C@H]1C(=O)N2C(C(=O)OC(C)(C)C)=C(CSc3nnnn3C)C3(CC34CCCC4)S(=O)(=O)C12 (stereo partly shown) [Compound 14],15.3
9,CO[C@H]1C(=O)N2C(C(=O)N3CCC(C(=O)O)CC3)=C(CSc3nc(=O)c(O)nn3C)C3(CC34CCCC4)S(=O)(=O)C12 (stereo partly shown) [Compound 24],34
10,COC1C(=O)N2C(C(=O)N(C)CC(=O)O)=C(C)C3(CC34CCCC4)S(=O)(=O)C12 (stereo not shown) [Compound 23],75
11,CO[C@H]1C(=O)N2C(C(=O)N3CCCCC3)=C(CSc3nc(=O)c(O)nn3C)C3(CC34CCCC4)S(=O)(=O)C12 (stereo partly shown) [Compound 16],32.4
12,"CC1=C(C(=O)OC(c2ccccc2)c2ccccc2)N2C(=O)CC2S(=O)(=O)C12CC21CCCC1 (stereo not shown) [Compound 22, benzhydryl 7,7-dihydro-2-spiro(2'-spirocyclopentyl)-cyclopropyl-3-methyl-3-cephem-4-carboxylate-1,1-dioxide]",478
13,CC1=C(C(=O)N2CCC(C(=O)OC(C)(C)C)CC2)N2C(=O)CC2S(=O)(=O)C12CC21CCCC1 (stereo not shown) [Compound 17],870
14,CO[C@H]1C(=O)N2C(C(=O)N3CCN(CC(=O)O)CC3)=C(C)C3(CC34CCCC4)S(=O)(=O)C12 (stereo partly shown) [Compound 4],139

# Now from value to molecule:
row,IC50 [nM],SMILES
1,3.9,CO[C@H]1C(=O)N2C(C(=O)c3ccccc3)=C(C)C3(CC34CCCC4)S(=O)(=O)C12 (stereo partly shown) [Compound 21]
2,8.4,CO[C@H]1C(=O)N2C(C(=O)N3CCC(C(N)=O)CC3)=C(C)C3(CC34CCCC4)S(=O)(=O)C12 (stereo partly shown) [Compound 20]
3,10.3,CO[C@H]1C(=O)N2C(C(=O)OC(C)(C)C)=C(CSc3nnc(C)s3)C3(CC34CCCC4)S(=O)(=O)C12 (stereo partly shown) [Compound 15]
4,6.4,CO[C@H]1C(=O)N2C(C(=O)N3CCN(C)CC3)=C(C)C3(CC34CCCCC4)S(=O)(=O)C12 (stereo partly shown) [Compound 7]
5,10.7,CO[C@H]1C(=O)N2C(C(C)=O)=C(C)C3(CC34CCCC4)S(=O)(=O)C12 (stereo partly shown) [Compound 18]
6,8.37,CO[C@H]1C(=O)N2C(C(=O)N3CCN(CC(=O)OC(C)(C)C)CC3)=C(C)C3(CC34CCCCC4)S(=O)(=O)C12 (stereo partly shown) [Compound 8]
7,8.4,CO[C@H]1C(=O)N2C(C(=O)N3CCN(C)CC3)=C(C)C3(CC34CCCCC4)S(=O)(=O)C12 (stereo partly shown) [Compound 10]
8,9.4,CO[C@H]1C(=O)N2C(C(=O)OC(C)(C)C)=C(CSc3ccccn3)C3(CC34CCCC4)S(=O)(=O)C12 (stereo partly shown) [Compound 13]

# Source: US5439904A, “2-spiro(2'-spirocycloalkyl)cyclopropyl cephalosporin sulfones as antiinflammatory and antigenerative agents” (Synphar Laboratories, Inc., priority 1993, dated 1995)
